Where a name gives a salt, the structure may show the parent alone. Where only a bound is given, the exact number is not on record here.

The first experiment has as its system platelet aggregation in human platelet rich plasma (PRP). The experiment is described as follows: Platelet Aggregation Assay (platelet rich plasma, with or without esterase pretreatment). Format: cell-based. As to conditions: Platelet, preincubated with 100 IU/mL porcine liver esterase 2 hours at 37° C., 100 μM ADP, read-out: Platelet Aggregation Assay IC50 (with esterase). The protocol:
Venous blood was obtained from the arm of a healthy human donor who was drug-free and aspirin-free for at least two weeks prior to blood collection. Blood was collected into 10 mL citrated Vacutainer tubes. The blood was centrifuged for 15 minutes at 150×g at room temperature, and platelet-rich plasma (PRP) was removed. The remaining blood was centrifuged for 15 minutes at 1500×g at room temperature, and platelet-poor plasma (PPP) was removed. Samples were assayed on a aggregometer (PAP-4 Platelet Aggregation Profiler), using PPP as the blank (100% transmittance). 200 μL of PRP was added to each micro test tube, and transmittance was set to 0%. 20 μL of various agonists (ADP, collagen, arachidonate, epinephrine, thrombin) were added to each tube, and the aggregation profiles were plotted (% transmittance versus time). The results are expressed as % inhibition of agonist-induced platelet aggregation. For the IC50 evaluation, the test compounds were added at various concentrations prior to the activation of the platelets.
Ester prodrugs were preincubated (10^-3 M F.C.) with 100 IU/mL Porcine liver esterase (Sigma Chemical Co., St. Louis, Mo., #E-3128) for 2 hours at 37° C. Aliquots are then diluted in 0.1M Tris, pH 7.4, to the desired concentrations. Aliquots of 20 μl of the esterase pretreated prodrugs are added to 200 μl of human platelet rich plasma. Samples were placed in platelet profiler (aggregometer) for 8 minutes at 37° C., followed by the addition of 100 μM Adenosine Diphosphate, (Sigma Chemical Co., St. Louis, Mo., #A-6521), to induce platelet aggregation. Platelet aggregation was allowed to proceed for 5 minutes. Percent inhibition is calculated using percent aggregation in the presence of the test compound divided by percent aggregation of control, times 100. This value is subtracted from 100, yielding percent inhibition. Calculation of IC50 is performed on a Texas Instruments TI59 with an IC50 program.
Table A below sets forth the antiplatelet activity of representative compounds of the present invention. The indicated compounds were tested for their ability to inhibit platelet aggregation (using platelet rich plasma (PRP)). The IC50 value (the concentration of antagonist which inhibits platelet aggregation by 50% relative to a control lacking the antagonist) is shown. In Table 5 the IC50 values are expressed as: +++=IC50 of <10 μM; ++=IC50 of 10-50 μM; +=IC50 of 50-100 μM (μM=micromolar).
Take `CCCCOC(=O)N[C@@H](CNC(=O)C[C@H]1CC(c2ccc(C(=N)N)cc2)=NO1)C(=O)OC` [Example 314B, Methyl-N^2-n-butyloxycarbonyl-N^3-[3-(4-amidinophenyl)isoxazolin-5(R)-ylacetyl]-(S)-2,3-diaminopropionate TFA salt]: the IC50 was < 10 µM. Same read-out and setting: the figure for `COC(=O)C(CNC(=O)CC1CC(c2ccc(C(=N)N)cc2)=NO1)NS(C)(=O)=O` (centres unmarked) [Example 323] is < 10 µM; for `CCS(=O)(=O)NC(CNC(=O)CC1CC(c2ccc(C(=N)N)cc2)=NO1)C(=O)OC` (centres unmarked) [Example 324] it is < 10 µM; for `COC(=O)C(CNC(=O)CC1CC(c2ccc(C(=N)N)cc2)=NO1)NS(=O)(=O)c1ccccc1` (centres unmarked) [Example 326] it is < 10 µM. Still for that read-out and setting: the figure for `COC(=O)[C@H](CNC(=O)CC1CC(c2ccc(C(=N)N)cc2)=NO1)NS(=O)(=O)c1ccc(C)cc1` (some centres unmarked) [Example 327] is < 10 µM; for `CCCC[C@H](CC(=O)OC)NC(=O)CC1CC(c2ccc(C(=N)N)cc2)=NO1` (stereo partly drawn) [Example 344, Methyl 3(R)-{5(R,S)-N-[3-(4-Amidinophenyl)isoxazolin-5-ylacetyl]amino}heptanoate] it is < 10 µM. The same measure, in the same setting: the figure for `CCCCC(CC(=O)OCC)NC(=O)CC1CC(c2ccc(C(=N)N)cc2)=NO1` (centres unmarked) [Example 345] is < 10 µM; for `CCOC(=O)C[C@@H](CC(C)C)NC(=O)CC1CC(c2ccc(C(=N)N)cc2)=NO1` (stereo partly drawn) [Example 348, Ethyl 3(R)-{5(R,S)-N-[3-(4-amidinophenyl)isoxazolin-5-ylacetyl]amino}-5-methylhexanoate . trifluoroacetic acid salt] it is < 10 µM. On to `COC(=O)CC1CCCCN1C(=O)CC1CC(c2ccc(C(=N)N)cc2)=NO1` (centres unmarked) [Example 394], for which the IC50 was < 10 µM. As for `CCOC(=O)CC1CCCCN1C(=O)CC1CC(c2ccc(C(=N)N)cc2)=NO1` (centres unmarked) [Example 413], the IC50 is < 10 µM.

On to `CCOC(=O)CC1CCCCCN1C(=O)CC1CC(c2ccc(C(=N)N)cc2)=NO1` (centres unmarked) [Example 415], for which the IC50 was < 10 µM. In the case of `N=C(N)c1ccc(C2=NOC(CC(=O)N[C@@H](CC(=O)O)C(=O)NCCc3ccccc3)C2)cc1` (stereo partly drawn) [Example 435, (S)-N^α -[3-(4-Amidinophenyl)-isoxazolin-5-(R,S)-ylacetyl]-α-aspart-N-(2-phenylethyl)amide, trifluoroacetic acid salt], the IC50 is < 10 µM. In the case of `CCOC(=O)CC(NC(=O)CC1CC(c2ccc(C(=N)N)cc2)=NO1)C(=O)OCC` (centres unmarked) [Example 439], the IC50 was < 10 µM. On the same count and under the same terms, the figure for `COC(=O)C(CNC(=O)CC1CC(c2ccc(C(N)=NC(=O)OC(C)(C)C)cc2)=NO1)NC(=O)OCc1ccccc1` (centres unmarked) [Example 440] is < 10 µM; for `COC(=O)CC(CCCc1ccccc1)NC(=O)CC1CC(c2ccc(C(=N)N)cc2)=NO1` (centres unmarked) [Example 446] it is < 10 µM.

On to `COC(=O)CC(CCc1ccncc1)NC(=O)CC1CC(c2ccc(C(=N)N)cc2)=NO1` (centres unmarked) [Example 450], for which the IC50 was < 10 µM. On the same count and under the same terms, then `CCCCOC(=O)NC(CNC(=O)CC1CC(CCC2CCNCC2)=NO1)C(=O)OC` (centres unmarked) [Example 451], with < 10 µM; and `COC(=O)CC(NC(=O)CC1CC(c2ccc(C(=N)N)cc2)=NO1)C(=O)NCCc1ccccc1` (centres unmarked) [Example 452], with < 10 µM; and `COC(=O)CC(NC(=O)CC1CC(c2ccc(C(N)=NC(=O)OC(C)(C)C)cc2)=NO1)C(=O)N1CCN(Cc2ccccc2)CC1` (centres unmarked) [Example 453], with < 10 µM. As to `COC(=O)CC(NC(=O)CC1CC(c2ccc(C(=N)N)cc2)=NO1)C(=O)N(C)CCc1ccccc1` (centres unmarked) [Example 454], the IC50 is < 10 µM. On the same count and under the same terms, the figure for `COC(=O)CC(NC(=O)CC1CC(c2ccc(C(=N)N)cc2)=NO1)C(=O)N1CCN(Cc2ccccc2)CC1` (centres unmarked) [Example 455] is < 10 µM. On to `COC(=O)CC(C#C[Si](C)(C)C)NC(=O)CC1CC(c2ccc(C(=N)N)cc2)=NO1` (centres unmarked) [Example 457], for which the IC50 was < 10 µM.

In the case of `CCOC(=O)CC(NC(=O)CC1CC(c2ccc(C(=N)N)cc2)=NO1)C(=O)NCC12CC3CC(CC(C3)C1)C2` (centres unmarked) [Example 462], the concentration for half-maximal inhibition (IC50) is < 10 µM. Still for that read-out and setting: the figure for `COC(=O)CC(NC(=O)CC1CC(c2ccc(C(=N)N)cc2)=NO1)C(=O)N1CCCc2ccccc21` (centres unmarked) [Example 464] is < 10 µM. Same read-out and setting: then `COC(=O)CC(NC(=O)CC1CC(c2ccc(C(=N)N)cc2)=NO1)C(=O)N1CCc2ccccc2C1` (centres unmarked) [Example 465], with < 10 µM; and `COC(=O)CC(NC(=O)CC1CC(c2ccc(C(=N)N)cc2)=NO1)C(=O)NC12CC3CC(CC(C3)C1)C2` (centres unmarked) [Example 466], with < 10 µM; and `COC(=O)CC(NC(=O)CC1CC(c2ccc(C(=N)N)cc2)=NO1)C(=O)NC1C2CC3CC(C2)CC1C3` (centres unmarked) [Example 467], with < 10 µM. Still for that read-out and setting: the figure for `COC(=O)CC(NC(=O)CC1CC(c2ccc(C(=N)N)cc2)=NO1)C(=O)N1CCSCC1` (centres unmarked) [Example 468] is < 10 µM.

`COC(=O)CC(NC(=O)CC1CC(c2ccc(C(=N)N)cc2)=NO1)C(=O)N1CCSC1` (centres unmarked) [Example 469]: the IC50 was < 10 µM. The same measure, in the same setting: the figure for `CCCCOc1ccc(S(=O)(=O)NC(CNC(=O)CC2CC(c3ccc(C(=N)N)cc3)=NO2)C(=O)OC)cc1` (centres unmarked) [Example 471] is < 10 µM; for `COC(=O)C(CNC(=O)CC1CC(c2ccc(C(=N)N)cc2)=NO1)NS(=O)(=O)c1cccs1` (centres unmarked) [Example 472] it is < 10 µM; for `COC(=O)[C@H](CNC(=O)CC1CC(c2ccc(C(=N)N)cc2)=NO1)NS(=O)(=O)c1cccc(C)c1` (stereo partly drawn) [Example 473A, Methyl N^2-3-methylphenylsulfonyl-N^3-[3-(4-amidinophenyl)isoxazolin-5R-ylacetyl]-S-2,3-diaminopropionate trifluoroacetic acid salt] it is < 10 µM. Still for that read-out and setting: the figure for `COC(=O)C(CNC(=O)CC1CC(c2ccc(C(=N)N)cc2)=NO1)NS(=O)(=O)c1cccc(C)c1` (centres unmarked) [Example 473] is < 10 µM.

With `COC(=O)C(CNC(=O)CC1CC(c2ccc(C(=N)N)cc2)=NO1)NS(=O)(=O)c1ccc(I)cc1` (centres unmarked) [Example 474], the IC50 is < 10 µM. Same read-out and setting: then `COC(=O)C(CNC(=O)CC1CC(c2ccc(C(=N)N)cc2)=NO1)NS(=O)(=O)c1cccc(C(F)(F)F)c1` (centres unmarked) [Example 475], with < 10 µM; and `COC(=O)C(CNC(=O)CC1CC(c2ccc(C(=N)N)cc2)=NO1)NS(=O)(=O)c1cccc(Cl)c1` (centres unmarked) [Example 476], with < 10 µM; and `COC(=O)c1ccccc1S(=O)(=O)NC(CNC(=O)CC1CC(c2ccc(C(=N)N)cc2)=NO1)C(=O)OC` (centres unmarked) [Example 477], with < 10 µM. On the same count and under the same terms, then `COC(=O)C(CNC(=O)CC1CC(c2ccc(C(=N)N)cc2)=NO1)NS(=O)(=O)c1c(C)cc(C)cc1C` (centres unmarked) [Example 478], with < 10 µM. Same read-out and setting: the figure for `COC(=O)C(CNC(=O)CC1CC(c2ccc(C(=N)N)cc2)=NO1)NS(=O)(=O)c1ccccc1Cl` (centres unmarked) [Example 479] is < 10 µM; for `COC(=O)C(CNC(=O)CC1CC(c2ccc(C(=N)N)cc2)=NO1)NS(=O)(=O)c1ccccc1C(F)(F)F` (centres unmarked) [Example 480] it is < 10 µM.

With `COC(=O)C(CNC(=O)CC1CC(c2ccc(C(=N)N)cc2)=NO1)NS(=O)(=O)c1ccc(C(F)(F)F)cc1` (centres unmarked) [Example 481], the IC50 was < 10 µM. With `COC(=O)C(CNC(=O)CC1CC(c2ccc(C(=N)N)cc2)=NO1)NS(=O)(=O)c1ccccc1F` (centres unmarked) [Example 482], the IC50 was < 10 µM. The same measure, in the same setting: then `COC(=O)C(CNC(=O)CC1CC(c2ccc(C(=N)N)cc2)=NO1)NS(=O)(=O)c1ccc(F)cc1` (centres unmarked) [Example 483], with < 10 µM.

The same experiment, now with this note: Platelet, without esterase, read-out: Platelet Aggregation Assay IC50 (without esterase).
Take `O=C(O)CCCN1C(=O)CC2(CC(CCCC3CCNCC3)=NO2)C1=O` (centres unmarked) [Example 373]: the half-inhibitory concentration (IC50) fell in the range of 10 to 50 µM. Turning to `N=C(N)c1ccc(C2=NOC(CC(=O)N3CCCCC3CC(=O)O)C2)cc1` [Example 375, 2-(R,S)-2-Carboxymethyl-1-{5-(R,S)-N-[3-(4-amidinophenyl)isoxazolin-5-ylacetyl]}piperidine], the IC50 was < 10 µM. Same read-out and setting: then `N=C(N)c1ccc(C2=NOC(CC(=O)NC(CC(=O)O)C(=O)NCC34CC5CC(CC(C5)C3)C4)C2)cc1` (centres unmarked) [Example 463], with < 10 µM.

The experiment is the same for the next values; noted with them: preincubated with 100 IU/mL porcine liver esterase 2 hours at 37° C., 100 μM ADP, read-out: Platelet Aggregation Assay IC50 (with esterase).
Consider `COC(=O)[C@H](CNC(=O)CC1CC(c2ccc(C(=N)N)cc2)=NO1)NS(=O)(=O)c1cccc(C)c1` (stereo partly drawn) [Example 473B, Methyl N^2-3-methylphenylsulfonyl-N^3-[3-(4-amidinophenyl)-5S-ylacetyl]-S-2,3-diaminopropionate trifluoroacetic acid salt], for which the IC50 is < 10 µM.
